In article PMC5845004, “Novel (p)ppGpp Binding and Metabolizing Proteins of Escherichia coli” (mBio, 2018):
Values joined by “and” are separate entries in the source; they are usually repeats but may differ in a detail not shown here. Equal values may be shown once.

Assays:
[1] = biological target: SaDer (Staphylococcus aureus, UniProt A6QH24); test: DRaCALA Kd determination, SaDer; assay type: binding, S. aureus
Procedure: For Kd measurements by DRaCALA, 2-fold serial dilutions from the highest possible concentrations of each purified protein were prepared in binding buffer B, and approximately 2 nM concentrations of α-^32P-labeled ppGpp, pppGpp, GTP, and GDP were added. The mixtures were incubated for 5 min at RT before spotting of 2 µl of the reaction mixtures onto nitrocellulose membranes. The fractions of bound ligand and the apparent Kd values were calculated as previously described ([37]).

[2] = biological target: TrmE (Escherichia coli, UniProt P25522); test: In vitro cleavage assay (TLC), TrmE; assay type: biochemical, E. coli; conditions: 10 µM TrmE, buffer B, with 100 mM potassium where stated, 10 min
Procedure: The purified His6-MutT and His6-NudG proteins were tested for their relative levels of cleavage of ppGpp compared to those seen with their native substrates. For this, a 1 μM concentration of each protein and a 10 nM concentration of [α-^32P]ppGpp were used together with 100 μM concentrations of cold competitors [ppGpp, GTP, ATP, 8-oxo-(d)GTP, 2-hydroxyl-(d)ATP] or 50 mM EDTA in buffer B. The samples were incubated at 30°C for 10 min and for 1 h before the reactions were stopped by adding 50 mM EDTA. The cleavage products were resolved by TLC as described above. The purified His6-NadR and His6-TrmE proteins were tested for their cleavage of both GTP and ppGpp. For cleavage of GTP, 10 μM concentrations of His6-MBP, His6-TrmE, and 20 μM His6-NadR proteins were used with 2 nM [α-^32P]GTP and 100 μM cold GTP in buffer B. For cleavage of ppGpp, 10 μM concentrations of His6-TrmE, His6-MBP, and His6-NadR proteins were used with 10 nM [α-^32P]ppGpp in buffer B. Of note, for His6-TrmE, another reaction was also performed in buffer B supplemented with 100 mM KCl. The reactions were performed at RT for 10 min and were stopped by adding 17% formic acid. The cleavage products were resolved by TLC as described above.
(§1) A 20 μM concentration of each of purified proteins MutT, NudG, NadR, TrmE, and MBP (as a negative control) was incubated with 100 μM ppGpp in buffer B (containing 40 mM Tris [pH 7.5], 100 mM NaCl, and 10 mM MgCl2) for 20 min at room temperature. Samples were snap-frozen on dry ice and analyzed with UPLC-MS afterward. All samples and buffers were stored at −80°C, thawed on ice, and kept at 4°C during analysis. For the analysis, a UPLC-quadrupole time of flight (UPLC-qTOF) method (Waters) was used. […] The detection conditions were as follows: photodiode array detector (PDA), […] (evaluated at 260 nm); MS, ionization; electrospray ionization (ESI+), scan, 200 to 800 m/z with lock mass correction. […]

[3] = biological target: NadR (Escherichia coli, UniProt P27278); test: In vitro cleavage assay (TLC), NadR; assay type: biochemical, E. coli; conditions: 10-20 µM NadR, buffer B with 100 mM NaCl, 10 min
Procedure: The purified His6-MutT and His6-NudG proteins were tested for their relative levels of cleavage of ppGpp compared to those seen with their native substrates. For this, a 1 μM concentration of each protein and a 10 nM concentration of [α-^32P]ppGpp were used together with 100 μM concentrations of cold competitors [ppGpp, GTP, ATP, 8-oxo-(d)GTP, 2-hydroxyl-(d)ATP] or 50 mM EDTA in buffer B. The samples were incubated at 30°C for 10 min and for 1 h before the reactions were stopped by adding 50 mM EDTA. The cleavage products were resolved by TLC as described above. The purified His6-NadR and His6-TrmE proteins were tested for their cleavage of both GTP and ppGpp. […]
as §1, with “afterward.” for “afterward. All samples and buffers were stored at −80°C, thawed on ice, and kept at 4°C during analysis. For the analysis, a UPLC-quadrupole time of flight (UPLC-qTOF) method (Waters) was used.”

[4] = biological target: Gpt (Escherichia coli, UniProt P0A9M5); parameters: method as in ref 29-32 (Table S1 refs 1, 2); conditions: ref 29-32 (Table S1 refs 1, 2); cited from earlier work
[5] = test system: Gmk; parameters: method as in Table S1 (3); conditions: ref Table S1 (3); read-out: IC50, B. subtilis Gmk; cited from earlier work
[6] = biological target: EF-Tu; parameters: method as in Table S1 (9); conditions: ref Table S1 (9); cited from earlier work
[7] = biological target: LdcC; parameters: method as in Table S1 (19); conditions: ref Table S1 (19); cited from earlier work

Gpt, sequence (P0A9M5 whole entry): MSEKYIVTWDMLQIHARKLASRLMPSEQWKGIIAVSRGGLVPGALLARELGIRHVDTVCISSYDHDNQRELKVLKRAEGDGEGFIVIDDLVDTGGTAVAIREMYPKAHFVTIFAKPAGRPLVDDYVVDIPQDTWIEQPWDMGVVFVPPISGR
TrmE, sequence (P25522 whole entry): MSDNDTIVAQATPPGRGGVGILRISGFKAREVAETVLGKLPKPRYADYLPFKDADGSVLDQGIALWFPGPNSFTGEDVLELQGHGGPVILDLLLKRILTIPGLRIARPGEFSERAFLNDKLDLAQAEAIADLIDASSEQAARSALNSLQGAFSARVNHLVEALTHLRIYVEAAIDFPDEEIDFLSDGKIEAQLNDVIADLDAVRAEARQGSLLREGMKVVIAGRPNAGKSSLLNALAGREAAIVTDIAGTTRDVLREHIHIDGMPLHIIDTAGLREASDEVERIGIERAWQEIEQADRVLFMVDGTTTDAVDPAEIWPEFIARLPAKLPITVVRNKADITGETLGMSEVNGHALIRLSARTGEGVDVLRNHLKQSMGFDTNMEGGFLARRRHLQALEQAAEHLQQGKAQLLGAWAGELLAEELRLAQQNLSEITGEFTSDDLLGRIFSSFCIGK
SaDer, sequence (A6QH24 whole entry): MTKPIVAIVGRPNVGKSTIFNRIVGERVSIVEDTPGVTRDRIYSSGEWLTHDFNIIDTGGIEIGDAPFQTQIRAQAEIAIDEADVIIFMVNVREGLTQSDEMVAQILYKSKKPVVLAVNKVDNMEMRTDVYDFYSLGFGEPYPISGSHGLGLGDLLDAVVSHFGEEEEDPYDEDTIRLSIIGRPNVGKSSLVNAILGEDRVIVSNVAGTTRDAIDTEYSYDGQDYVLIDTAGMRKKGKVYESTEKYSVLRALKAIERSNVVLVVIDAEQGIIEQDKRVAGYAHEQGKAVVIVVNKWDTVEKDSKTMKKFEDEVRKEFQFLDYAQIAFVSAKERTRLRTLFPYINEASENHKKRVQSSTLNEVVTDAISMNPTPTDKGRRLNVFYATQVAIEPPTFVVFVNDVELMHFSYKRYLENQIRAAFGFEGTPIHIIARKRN
NadR, sequence (P27278 whole entry): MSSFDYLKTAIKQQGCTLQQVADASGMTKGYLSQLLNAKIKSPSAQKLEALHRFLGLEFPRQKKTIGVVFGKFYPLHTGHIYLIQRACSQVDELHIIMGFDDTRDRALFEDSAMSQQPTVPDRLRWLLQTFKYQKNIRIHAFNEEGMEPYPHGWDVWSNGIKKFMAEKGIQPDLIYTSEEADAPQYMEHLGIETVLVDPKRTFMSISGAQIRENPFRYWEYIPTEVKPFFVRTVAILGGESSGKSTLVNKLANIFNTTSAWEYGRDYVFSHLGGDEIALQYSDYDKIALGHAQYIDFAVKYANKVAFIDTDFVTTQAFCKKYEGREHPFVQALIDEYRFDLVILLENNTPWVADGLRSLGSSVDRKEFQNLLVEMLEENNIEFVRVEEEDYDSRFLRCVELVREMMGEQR

Nc1nc2c(ncn2[C@@H]2O[C@H](COP(=O)(O)OP(=O)(O)O)[C@@H](OP(=O)(O)OP(=O)(O)O)[C@H]2O)c(=O)[nH]1 [ppGpp, guanosine tetraphosphate]
Kd [1]: 3.8 ± 0.5 µM
cleavage by TrmE [2]: converted most of ppGpp
cleavage by NadR [3]: converted most of ppGpp
IC50 [4]: ~85 µM and 85 µM
IC50 [5]: 20 µM
Ki [6]: 60 µM
Kd [7]: 0.1 to 0.5 µM
